Assay results: ChEMBL document CHEMBL4251615, “Discovery of anilino-furo[2,3-d]pyrimidine derivatives as dual inhibitors of EGFR/HER2 tyrosine kinase and their anticancer activity” (Eur J Med Chem, 2018)

How the values were obtained:
Format in all cases: functional
Hs-578T = experiment: Growth inhibition of human Hs 578T cells assessed as cell growth at 10 uM incubated for 48 hrs by sulforhodamine B assay relative to control; conditions: read-out: Activity
MDA-MB-231 = experiment: Growth inhibition of human MDA-MB-231 cells assessed as cell growth at 10 uM incubated for 48 hrs by sulforhodamine B assay relative to control; conditions: MDA-MB-231, 48 h, read-out: Activity
UO-31 = experiment: Growth inhibition of human UO31 cells assessed as cell growth at 10 uM incubated for 48 hrs by sulforhodamine B assay relative to control; conditions: UO-31, 48 h, read-out: Activity
SNB-75 = experiment: Growth inhibition of human SNB75 cells assessed as cell growth at 10 uM incubated for 48 hrs by sulforhodamine B assay relative to control; conditions: SNB-75, 48 h, read-out: Activity
SF-539 = experiment: Growth inhibition of human SF539 cells assessed as cell growth at 10 uM incubated for 48 hrs by sulforhodamine B assay relative to control; conditions: SF-539, 48 h, read-out: Activity
SK-MEL-28 = experiment: Growth inhibition of human SK-MEL-28 cells assessed as cell growth at 10 uM incubated for 48 hrs by sulforhodamine B assay relative to control; conditions: SK-MEL-28, 48 h, read-out: Activity
NCI-H226 = experiment: Growth inhibition of human NCI-H226 cells assessed as cell growth at 10 uM incubated for 48 hrs by sulforhodamine B assay relative to control; conditions: NCI-H226, 48 h, read-out: Activity
SNB-19 = experiment: Growth inhibition of human SNB19 cells assessed as cell growth at 10 uM incubated for 48 hrs by sulforhodamine B assay relative to control; conditions: SNB-19, 48 h, read-out: Activity
SF-295 = experiment: Growth inhibition of human SF295 cells assessed as cell growth at 10 uM incubated for 48 hrs by sulforhodamine B assay relative to control; conditions: SF-295, 48 h, read-out: Activity
ACHN = experiment: Growth inhibition of human ACHN cells assessed as cell growth at 10 uM incubated for 48 hrs by sulforhodamine B assay relative to control; conditions: read-out: Activity
LOX IMVI = experiment: Growth inhibition of human LOXIMVI cells assessed as cell growth at 10 uM incubated for 48 hrs by sulforhodamine B assay relative to control; conditions: read-out: Activity
NCI/ADR-RES = experiment: Growth inhibition of human NCI/ADR-RES cells assessed as cell growth at 10 uM incubated for 48 hrs by sulforhodamine B assay relative to control; conditions: read-out: Activity
HOP-62 = experiment: Growth inhibition of human HOP62 cells assessed as cell growth at 10 uM incubated for 48 hrs by sulforhodamine B assay relative to control; conditions: HOP-62, 48 h, read-out: Activity
HT-29 = experiment: Growth inhibition of human HT-29 cells assessed as cell growth at 10 uM incubated for 48 hrs by sulforhodamine B assay relative to control; conditions: HT-29, 48 h, read-out: Activity
HCT-15 = experiment: Growth inhibition of human HCT15 cells assessed as cell growth at 10 uM incubated for 48 hrs by sulforhodamine B assay relative to control; conditions: HCT-15, 48 h, read-out: Activity
SK-OV-3 = experiment: Growth inhibition of human SKOV3 cells assessed as cell growth at 10 uM incubated for 48 hrs by sulforhodamine B assay relative to control; conditions: SK-OV-3, 48 h, read-out: Activity
NCI-H23 = experiment: Growth inhibition of human NCI-H23 cells assessed as cell growth at 10 uM incubated for 48 hrs by sulforhodamine B assay relative to control; conditions: NCI-H23, 48 h, read-out: Activity
HCC 2998 = experiment: Growth inhibition of human HCC2998 cells assessed as cell growth at 10 uM incubated for 48 hrs by sulforhodamine B assay relative to control; conditions: HCC 2998, 48 h, read-out: Activity
K562 = experiment: Growth inhibition of human K562 cells assessed as cell growth at 10 uM incubated for 48 hrs by sulforhodamine B assay relative to control; conditions: K562, 48 h, read-out: Activity
OVCAR-4 = experiment: Growth inhibition of human OVCAR4 cells assessed as cell growth at 10 uM incubated for 48 hrs by sulforhodamine B assay relative to control; conditions: OVCAR-4, 48 h, read-out: Activity
SF-268 = experiment: Growth inhibition of human SF268 cells assessed as cell growth at 10 uM incubated for 48 hrs by sulforhodamine B assay relative to control; conditions: SF-268, 48 h, read-out: Activity
MOLT-4 = experiment: Growth inhibition of human MOLT4 cells assessed as cell growth at 10 uM incubated for 48 hrs by sulforhodamine B assay relative to control; conditions: MOLT-4, 48 h, read-out: Activity
UACC-62 = experiment: Growth inhibition of human UACC62 cells assessed as cell growth at 10 uM incubated for 48 hrs by sulforhodamine B assay relative to control; conditions: UACC-62, 48 h, read-out: Activity
CAKI-1 = experiment: Growth inhibition of human Caki1 cells assessed as cell growth at 10 uM incubated for 48 hrs by sulforhodamine B assay relative to control; conditions: CAKI-1, 48 h, read-out: Activity
SR = experiment: Growth inhibition of human SR cells assessed as cell growth at 10 uM incubated for 48 hrs by sulforhodamine B assay relative to control; conditions: read-out: Activity
Malme-3M = experiment: Growth inhibition of human MALME-3M cells assessed as cell growth at 10 uM incubated for 48 hrs by sulforhodamine B assay relative to control; conditions: read-out: Activity
CCRF-CEM = experiment: Growth inhibition of human CCRF-CEM cells assessed as cell growth at 10 uM incubated for 48 hrs by sulforhodamine B assay relative to control; conditions: read-out: Activity
SW-620 = experiment: Growth inhibition of human SW620 cells assessed as cell growth at 10 uM incubated for 48 hrs by sulforhodamine B assay relative to control; conditions: SW-620, 48 h, read-out: Activity
OVCAR-8 = experiment: Growth inhibition of human OVCAR8 cells assessed as cell growth at 10 uM incubated for 48 hrs by sulforhodamine B assay relative to control; conditions: OVCAR-8, 48 h, read-out: Activity
M14 = experiment: Growth inhibition of human M14 cells assessed as cell growth at 10 uM incubated for 48 hrs by sulforhodamine B assay relative to control; conditions: M14, 48 h, read-out: Activity
KM12 = experiment: Growth inhibition of human KM12 cells assessed as cell growth at 10 uM incubated for 48 hrs by sulforhodamine B assay relative to control; conditions: KM12, 48 h, read-out: Activity
U-251 = experiment: Growth inhibition of human U251 cells assessed as cell growth at 10 uM incubated for 48 hrs by sulforhodamine B assay relative to control; conditions: U-251, 48 h, read-out: Activity
T47D = experiment: Growth inhibition of human T47D cells assessed as cell growth at 10 uM incubated for 48 hrs by sulforhodamine B assay relative to control; conditions: read-out: Activity
OVCAR-5 = experiment: Growth inhibition of human OVCAR5 cells assessed as cell growth at 10 uM incubated for 48 hrs by sulforhodamine B assay relative to control; conditions: OVCAR-5, 48 h, read-out: Activity

| Structure (SMILES) | growth at 10 µM (Hs-578T) [%] | growth at 10 µM (MDA-MB-231) [%] | growth at 10 µM (UO-31) [%] | growth at 10 µM (SNB-75) [%] | growth at 10 µM (SF-539) [%] | growth at 10 µM (SK-MEL-28) [%] | growth at 10 µM (NCI-H226) [%] | growth at 10 µM (SNB-19) [%] | growth at 10 µM (SF-295) [%] | growth at 10 µM (ACHN) [%] | growth at 10 µM (LOX IMVI) [%] | growth at 10 µM (NCI/ADR-RES) [%] | growth at 10 µM (HOP-62) [%] | growth at 10 µM (HT-29) [%] | growth at 10 µM (HCT-15) [%] | growth at 10 µM (SK-OV-3) [%] | growth at 10 µM (NCI-H23) [%] | growth at 10 µM (HCC 2998) [%] | growth at 10 µM (K562) [%] | growth at 10 µM (OVCAR-4) [%] | further results |
| --- | --- | --- | --- | --- | --- | --- | --- | --- | --- | --- | --- | --- | --- | --- | --- | --- | --- | --- | --- | --- | --- |
| Cc1oc2ncnc(Nc3ccccc3)c2c1C(=O)NCCO | 90.5 | 75 | 87.7 | 90.7 | 88.6 | 99 | 106 | 93.9 | 100 | 91.8 | 95.4 | 102 | 99 | 106 | 98 | 100 | 92 | 103 | 29.4 | 103 | growth at 10 µM (SF-268): 99.8%; growth at 10 µM (MOLT-4): -0.28%; growth at 10 µM (UACC-62): 86.2%; growth at 10 µM (CAKI-1): 90.8%; growth at 10 µM (SR): 52.2%; growth at 10 µM (Malme-3M): 107%; growth at 10 µM (CCRF-CEM): 97.4%; growth at 10 µM (SW-620): 95.1%; growth at 10 µM (OVCAR-8): 113%; growth at 10 µM (M14): 106%; growth at 10 µM (KM12): 95.2%; growth at 10 µM (U-251): 102%; growth at 10 µM (T47D): 99.4%; growth at 10 µM (OVCAR-5): 93.2% |
| Cc1oc2ncnc(Nc3cccc(Cl)c3)c2c1CO | 96.2 | 76.5 | 56.9 | 86.5 | 91.6 | 106 | 80.6 | 87.3 | 93.2 | 76.7 | 98.4 | 86 | 89 | 90.5 | 67.3 | 101 | 87.5 | 93.2 | 85.4 | 92.5 | growth at 10 µM (SF-268): 92.9%; growth at 10 µM (MOLT-4): 86.2%; growth at 10 µM (UACC-62): 76.4%; growth at 10 µM (CAKI-1): 53.7%; growth at 10 µM (SR): 62.2%; growth at 10 µM (Malme-3M): 88.1%; growth at 10 µM (CCRF-CEM): 100%; growth at 10 µM (SW-620): 93.2%; growth at 10 µM (OVCAR-8): 108%; growth at 10 µM (M14): 94%; growth at 10 µM (KM12): 91.4%; growth at 10 µM (U-251): 92.3%; growth at 10 µM (T47D): 78.8%; growth at 10 µM (OVCAR-5): 74.3% |
| Cc1cccc(Nc2ncnc3oc(C)c(C(=O)NCCN4CCOCC4)c23)c1 | 88.5 | 81.8 | 75.6 | 82.4 | 95.4 | 100 | 94.9 | 91 | 94 | 93.6 | 93.2 | 94.7 | 93.1 | 104 | 94.9 | 111 | 92.5 | 97.1 | 98.3 | 110 | growth at 10 µM (SF-268): 93.3%; growth at 10 µM (MOLT-4): 111%; growth at 10 µM (UACC-62): 84.6%; growth at 10 µM (CAKI-1): 90.2%; growth at 10 µM (SR): 126%; growth at 10 µM (Malme-3M): 97.2%; growth at 10 µM (CCRF-CEM): 99.7%; growth at 10 µM (SW-620): 98.9%; growth at 10 µM (OVCAR-8): 109%; growth at 10 µM (M14): 99.8%; growth at 10 µM (KM12): 94.6%; growth at 10 µM (U-251): 105%; growth at 10 µM (T47D): 106%; growth at 10 µM (OVCAR-5): 81.8% |
| CCOC(=O)c1c(C)oc2ncnc(Nc3ccc(OCc4cccc(F)c4)cc3)c12 | 87.7 | 101 | 85 | 119 | 94.4 | 96.9 | 87.6 | 99.5 | 82.7 | 62.1 | 85.3 | 86.2 | 87.8 | 92.7 | 98.5 | 104 | 91.8 | 108 | 107 | 102 | growth at 10 µM (SF-268): 98.8%; growth at 10 µM (MOLT-4): 107%; growth at 10 µM (UACC-62): 80.3%; growth at 10 µM (CAKI-1): 80.1%; growth at 10 µM (SR): 104%; growth at 10 µM (Malme-3M): 125%; growth at 10 µM (CCRF-CEM): 91.2%; growth at 10 µM (SW-620): 88.9%; growth at 10 µM (OVCAR-8): 97.6%; growth at 10 µM (M14): 97.5%; growth at 10 µM (KM12): 92.9%; growth at 10 µM (U-251): 96.1%; growth at 10 µM (T47D): 91%; growth at 10 µM (OVCAR-5): 94% |
| Cc1oc2ncnc(Nc3ccc(OCc4cccc(F)c4)c(Cl)c3)c2c1C(=O)NCCO | 46.1 | 26 | 57.6 | 40.5 | 47.4 | 50.6 | 40.8 | 34.3 | 49.5 | 49.7 | 61.5 | 70.8 | 51.1 | 73 | 61.1 | 74.2 | 58.6 | 79.1 | 33.2 | 66.9 | growth at 10 µM (SF-268): 47.2%; growth at 10 µM (MOLT-4): 68.5%; growth at 10 µM (UACC-62): 55%; growth at 10 µM (CAKI-1): 74.2%; growth at 10 µM (SR): 99.7%; growth at 10 µM (Malme-3M): 52.3%; growth at 10 µM (CCRF-CEM): 89.5%; growth at 10 µM (SW-620): 93.4%; growth at 10 µM (OVCAR-8): 42.8%; growth at 10 µM (M14): 66.9%; growth at 10 µM (KM12): 68.9%; growth at 10 µM (U-251): 48.1%; growth at 10 µM (T47D): 34.7%; growth at 10 µM (OVCAR-5): 96.9% |
